pIC50: −log10 of the molar value.
What was measured:
dihydrofolate reductase = target: T1, dihydrofolate reductase (Mus musculus, UniProt P00375); test: In vivo dihydrofolate reductase activity
T1 sequence (P00375 1-187): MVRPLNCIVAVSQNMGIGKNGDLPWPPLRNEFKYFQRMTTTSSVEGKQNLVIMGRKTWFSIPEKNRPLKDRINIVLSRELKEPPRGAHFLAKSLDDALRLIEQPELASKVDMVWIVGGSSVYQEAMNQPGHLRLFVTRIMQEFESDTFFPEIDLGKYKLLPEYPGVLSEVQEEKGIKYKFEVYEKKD
Procedure: (§1) CF1 male mice (~30 g) were implanted with 2×10^6 Ehrlich ascites tumor cells, intraperitoneally on Day 0. Compound I was suspended by homogenation in 0.05% polysorbate.80-water and administered intraperitoneally at 10 and 20 mg/kg for 9 days to determine its effectiveness for inhibition of tumor growth. Mice were sacrificed on Day 10, and the ascites fluid was collected from the peritoneal cavity. The volume and ascrit (packed cell volume) were determined for each animal and the percent inhibition of tumor growth was calculated. For the metabolic studies, mice were treated on Days 8 and 9 with 10 mg/kg of Compound I, intraperitoneally. […]
(§2) Carbamyl phosphate synthetase activity was determined using the reaction medium of Kalman et al [Am. […] Citrulline formed from ornithine was measured at 490 nm by the method of Archibald [J. Biol. Chem., 156, 121 (1944)]. […] The ^14 CO2 generated in 15 min was trapped in 1M KOH and counted. Thymidylate synthetase activity was determined using a post-mitochondrial supernatant (9000 g×10 min) and 5 μCi of 5-^3 H-deoxyuridine monophosphate (14 Ci/mmol) according to the method of Kampf et al [ J. Med. Chem., 19, 903 (1976)]. ^14 C-Formate incorporation into purines was determined by the method of Spassova et al [Biochem. Pharmacol., 25, 923 (1976)] using 0.5 μCi of ^14 C-formic acid (52.0 mCi/mmol). […] The Rf value for xanthine monophosphate was scraped and counted. […]

Holtzman male rats = test: Rat liver, small intestine and fecal lipid extraction; format: in vivo; conditions: 14 days 10 mg/kg/day orally
[1] = target: phosphoribosyl pyrophosphate amidotransferase (Mus musculus, UniProt Q8CIH9); test: In vitro phosphoribosyl pyrophosphate amidotransferase activity; format: biochemical; conditions: read-out: ID50, Phosphoribosyl pyrophosphate amidotransferase activity
Procedure: as §1, §2

CF1 male mice = test: Antihyperlipidemic screen in normal mice; format: in vivo, mouse; conditions: for Serum Cholesterol / Serum Triglyceride: CF1 male mice I.P.
Procedure: Compounds to be tested were suspended in 1% carboxymethylcellulose-water and administered to CF1 male mice (~25 g) intraperitoneally for 16 days or Holtzman male rats (~350 g) orally by an intubation needle for 16 days. On days 9 or 16, blood was obtained by tail vein bleeding and the serum separated by centrifugation for 3 min. The serum cholesterol levels were determined by a modification of the Liebermann-Burchard reaction as described in Ness et al, Clin. Chim. Acta, 10, 229 (1964). Serum was also collected on day 16 and the triglyceride content was determined by a commercial kit, The Fisher Hycel Triglyceride Test Kit.
Data are expressed in the Table 2-7 as percent of control ± the standard deviation. The probable significant level (P) between each test group and the control group was determined by the Student's "t" test.

[2] = test system: Ehrlich ascites carcinoma; test: Ehrlich ascites carcinoma growth in CF1 male mice; format: in vivo, mouse; conditions: for No. of Animals Survived on Day 10: 6 animals; for Ascrit Packed Cell Vol. / Vol(ml) Ascites Fluid: Day 10; for Percent Inhibition: Ehrlich ascites carcinoma growth
Procedure: CF1 male mice (~30 g) were implanted with 2×10^6 Ehrlich ascites tumor cells, intraperitoneally on Day 0. Compound I was suspended by homogenation in 0.05% polysorbate.80-water and administered intraperitoneally at 10 and 20 mg/kg for 9 days to determine its effectiveness for inhibition of tumor growth. Mice were sacrificed on Day 10, and the ascites fluid was collected from the peritoneal cavity. The volume and ascrit (packed cell volume) were determined for each animal and the percent inhibition of tumor growth was calculated. For the metabolic studies, mice were treated on Days 8 and 9 with 10 mg/kg of Compound I, intraperitoneally. The animal was sacrificed on Day 10 and the ascites fluid harvested. The in vitro metabolic studies were performed at […] final concentration of Compound I.

Sequence of phosphoribosyl pyrophosphate amidotransferase (Q8CIH9 12-517): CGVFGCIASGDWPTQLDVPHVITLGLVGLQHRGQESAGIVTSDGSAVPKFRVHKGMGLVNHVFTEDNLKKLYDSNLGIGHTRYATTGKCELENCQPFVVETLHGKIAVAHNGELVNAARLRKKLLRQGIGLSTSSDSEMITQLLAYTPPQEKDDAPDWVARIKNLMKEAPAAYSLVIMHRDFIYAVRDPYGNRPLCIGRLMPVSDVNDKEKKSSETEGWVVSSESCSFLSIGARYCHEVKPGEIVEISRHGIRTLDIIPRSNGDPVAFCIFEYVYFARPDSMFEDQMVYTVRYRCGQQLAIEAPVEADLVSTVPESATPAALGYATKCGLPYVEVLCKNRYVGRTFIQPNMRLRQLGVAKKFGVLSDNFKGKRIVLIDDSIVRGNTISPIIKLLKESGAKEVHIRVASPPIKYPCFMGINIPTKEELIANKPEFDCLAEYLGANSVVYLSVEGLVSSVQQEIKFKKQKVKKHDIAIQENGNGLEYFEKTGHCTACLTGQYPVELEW

With “{Cu[(CH3)3 N.BH2 CO2 ]2.(CH3)3 N.BH2 COOH} [Compound I]” the “Dihydrofolate reductase activity inhibited” value (dihydrofolate reductase) was 25%, the Dihydrofolate reductase activity (dihydrofolate reductase; 10 mg/kg/day I.P. on Days 8 and 9) was 75 ± 6 % Control and the Cholesterol (Holtzman male rats; rat Feces) was 110 ± 6 Percent Control. For the same substance, the “Mg of Lipid Extracted” value (Holtzman male rats; rat Feces) was 123 ± 5 Percent Control, the “Neutral Lipids” value (Holtzman male rats; rat Feces) was 131 ± 7 Percent Control and the Phospholipids (Holtzman male rats; rat Feces) was 183 ± 8 Percent Control. It also gave a Protein (Holtzman male rats; rat Feces) of 68 ± 6 Percent Control, a Triglyceride (Holtzman male rats; rat Feces) of 133 ± 7 Percent Control and a Cholesterol (Holtzman male rats; rat Liver) of 65 ± 6 Percent Control. For the same substance, the “Mg of Lipid Extracted” value (Holtzman male rats; rat Liver) was 51 ± 5 Percent Control, the “Neutral Lipids” value (Holtzman male rats; rat Liver) was 93 ± 9 Percent Control and the Phospholipids (Holtzman male rats; rat Liver) was 93 ± 9 Percent Control. The Protein (Holtzman male rats; rat Liver) was 99 ± 7 Percent Control, the Triglyceride (Holtzman male rats; rat Liver) was 76 ± 7 Percent Control and the Cholesterol (Holtzman male rats; rat Small Intestine) was 47 ± 6 Percent Control. The “Mg of Lipid Extracted” value (Holtzman male rats; rat Small Intestine) was 43 ± 5 Percent Control, the “Neutral Lipids” value (Holtzman male rats; rat Small Intestine) was 17 ± 3 Percent Control and the Phospholipids (Holtzman male rats; rat Small Intestine) was 46 ± 5 Percent Control. It also gave a Protein (Holtzman male rats; rat Small Intestine) of 111 ± 8 Percent Control, a Triglyceride (Holtzman male rats; rat Small Intestine) of 40 ± 4 Percent Control and a pIC50 [1] of 3.28. For the same substance, the “Serum Cholesterol” value (CF1 male mice; 2.5 mg/kg, Day 9) was 61 ± 5 % Control, the “Serum Cholesterol” value (CF1 male mice; 2.5 mg/kg, Day 16) was 62 ± 6 % Control and the “Serum Triglyceride” value (CF1 male mice; 2.5 mg/kg, Day 16) was 50 ± 6 % Control. The “Serum Cholesterol” value (CF1 male mice; 5.0 mg/kg, Day 9) was 67 ± 6 % Control, the “Serum Cholesterol” value (CF1 male mice; 5.0 mg/kg, Day 16) was 63 ± 5 % Control and the “Serum Triglyceride” value (CF1 male mice; 5.0 mg/kg, Day 16) was 69 ± 6 % Control. The “Serum Cholesterol” value (CF1 male mice; 10.0 mg/kg, Day 9) was 71 ± 6 % Control, the “Serum Cholesterol” value (CF1 male mice; 10.0 mg/kg, Day 16) was 63 ± 5 % Control and the “Serum Triglyceride” value (CF1 male mice; 10.0 mg/kg, Day 16) was 47 ± 5 % Control. The “Serum Cholesterol” value (CF1 male mice; 20.0 mg/kg, Day 9) was 52 ± 5 % Control, the “Serum Cholesterol” value (CF1 male mice; 20.0 mg/kg, Day 16) was 53 ± 4 % Control and the “Serum triglyceride levels reduced” value (CF1 male mice; mice, 2.5 mg/kg/day) was “greater than 50%”. The “Serum triglyceride levels reduced” value (CF1 male mice; mice, 10 mg/kg/day) was “greater than 50%”, the serum triglyceride reduction (CF1 male mice; mice, 10 mg/kg/day) was 53% and the “reduction of serum cholesterol (maximal effect)” value (CF1 male mice; mice, 20 mg/kg/day) was 47%. The “No. of Animals Survived on Day 10” value ([2]; 10 mg/kg/day i.p.) was 5, the “Ascrit Packed Cell Vol.” value ([2]; 10 mg/kg/day i.p.) was 18.5 and the “Vol(ml) Ascites Fluid” value ([2]; 10 mg/kg/day i.p.) was 0.04 mL. The “Percent Inhibition” value ([2]; 10 mg/kg/day i.p.) was 99.7%, the “No. of Animals Survived on Day 10” value ([2]; 20 mg/kg/day i.p.) was 6 and the “Ascrit Packed Cell Vol.” value ([2]; 20 mg/kg/day i.p.) was 34.0. The “Vol(ml) Ascites Fluid” value ([2]; 20 mg/kg/day i.p.) was 0.32 mL and the “Percent Inhibition” value ([2]; 20 mg/kg/day i.p.) was 96.2%.
